Measured values as given in US6855730B2, “3-methylidenyl-2-indolinone modulators of protein kinase” (Sugen, Inc., priority 1998, dated 2005).

Biological target: EGFR (Homo sapiens, UniProt P00533)
Test: EGFR assay (cellular ELISA, NIH 3T3/C7 cells)
Assay type: cell-based
Parameters: expressed in transfected cells; host or cells: NIH 3T3/C7
Details: read-out: cell EGF IC50
Description: EGF Receptor kinase activity in cells genetically engineered to express human EGF-R can be measured as described below:
Materials and Reagents. • a. […] 05-101 (UBI) (a monoclonal antibody recognizing an EGFR extracellular domain). • c. Anti-phosphotyosine antibody (anti-Ptyr) (polyclonal). • d. Detection antibody: Goat anti-rabbit IgG horse radish peroxidase conjugate, TAGO, Inc. Burlingame, Calif. • e. TBST buffer:
• Keep solution in dark at 4° C. until used. • h. Stock reagents of:
Pre-coat ELISA Plate • 1. […] Coated plates are good for up to 10 days when stored at 4° C. • 2. On day-of use, remove coating buffer and replace with blocking buffer (5% Carnation Instant NonFat Dry Milk in PBS). Incubate the plate, shaking, at room temperature (about 23° C. to 25° C.) for 30 minutes. Just prior to use, remove blocking buffer and wash plate 4 times with TBST buffer.
Seeding Cells • 1. […] Choose dishes having 80-90% confluence for the experiment. Trypsinize cells and stop reaction by adding 10% CS DMEM medium. Suspend cells in DMEM medium (10% CS DMEM medium) and centrifuge once at 1000 rpm at room temperature for 5 minutes. • 3. Resuspend cells in seeding medium (DMEM, 0.5% bovine serum), and count the cells using trypan blue. Viability above 90% is acceptable. Seed cells in DMEM medium (0.5% bovine serum) at a density of 10,000 cells per well, 100 μl per well, in a 96 well microtiter plate. Incubate seeded cells in 5% CO2 at 37° C. for about 40 hours.
Assay Procedures. • 1. Check seeded cells for contamination using an inverted microscope. Dilute test compounds stock (10 mg/ml in DMSO) 1:10 in DMEM medium, then transfer 5 μl to a test well for a test compounds drug dilution of 1:200 and a final DMSO concentration of 1%. Control wells receive DMSO alone. Incubate in 5% CO2 at 37° C. for one hour. • 2. Prepare EGF ligand: dilute stock EGF in DMEM so that upon transfer of 10 μl dilute EGF (1:12 dilution), 25 nM final concentration is attained. • 3. Prepare fresh 10 ml HNTG* sufficient for 100 μl per well wherein HNTG* comprises: HNTG stock (2.0 ml), milli-Q H2O (7.3 ml), EDTA, 100 mM, pH 7.0 (0.5 ml), Na3VO4 0.5 M (0.1 ml) and Na4(P2O7), 0.2 M (0.1 ml). • 4. Place on ice. • 5. After two hours incubation with drug, add prepared EGF ligand to cells, 10 μl per well, to yield a final concentration of 25 nM. Control wells receive DMEM alone. Incubate, shaking, at room temperature, for 5 minutes. • 6. Remove test compound, EGF, and DMEM. Wash cells twice with PBS. Transfer HNTG* to cells, 100 μl per well. Place on ice for 5 minutes. Meanwhile, remove blocking buffer from other ELISA plate and wash with TBST as described above. • 7. With a pipette tip securely fitted to a micropipettor, scrape cells from plate and homogenize cell material by repeatedly aspirating and dispensing the HNTG* lysis buffer. Transfer lysate to a coated, blocked, and washed ELISA plate. Incubate shaking at room temperature for one hour. • 8. Remove lysate and wash 4 times with TBST. Transfer freshly diluted anti-Ptyr antibody to ELISA plate at 100 μl per well. Incubate shaking at room temperature for 30 minutes in the presence of the anti-Ptyr antiserum (1:3000 dilution in TBST). • 9. Remove the anti-Ptyr antibody and wash 4 times with TBST. Transfer the freshly diluted TAGO 30 anti-rabbit IgG antibody to the ELISA plate at 100 μl per well. Incubate shaking at room temperature for 30 minutes (anti-rabbit IgG antibody: 1:3000 dilution in TBST). • 10. Remove detection antibody and wash 4 times with TBST. Transfer freshly prepared ABTS/H2O2 solution to ELISA plate, 100 μl per well. Incubate at room temperature for 20 minutes. ABTS/H2O2 solution: 1.2 μl 30% H2O2 in 10 ml ABTS stock. • 11. Stop reaction by adding 50 μl 5N H2SO4 (optional), and determine O.D. at 410 nm. • 12. The maximal phosphotyrosine signal is determined by subtracting the value of the negative controls from the positive controls. […]

EGFR, sequence (P00533 25-1210): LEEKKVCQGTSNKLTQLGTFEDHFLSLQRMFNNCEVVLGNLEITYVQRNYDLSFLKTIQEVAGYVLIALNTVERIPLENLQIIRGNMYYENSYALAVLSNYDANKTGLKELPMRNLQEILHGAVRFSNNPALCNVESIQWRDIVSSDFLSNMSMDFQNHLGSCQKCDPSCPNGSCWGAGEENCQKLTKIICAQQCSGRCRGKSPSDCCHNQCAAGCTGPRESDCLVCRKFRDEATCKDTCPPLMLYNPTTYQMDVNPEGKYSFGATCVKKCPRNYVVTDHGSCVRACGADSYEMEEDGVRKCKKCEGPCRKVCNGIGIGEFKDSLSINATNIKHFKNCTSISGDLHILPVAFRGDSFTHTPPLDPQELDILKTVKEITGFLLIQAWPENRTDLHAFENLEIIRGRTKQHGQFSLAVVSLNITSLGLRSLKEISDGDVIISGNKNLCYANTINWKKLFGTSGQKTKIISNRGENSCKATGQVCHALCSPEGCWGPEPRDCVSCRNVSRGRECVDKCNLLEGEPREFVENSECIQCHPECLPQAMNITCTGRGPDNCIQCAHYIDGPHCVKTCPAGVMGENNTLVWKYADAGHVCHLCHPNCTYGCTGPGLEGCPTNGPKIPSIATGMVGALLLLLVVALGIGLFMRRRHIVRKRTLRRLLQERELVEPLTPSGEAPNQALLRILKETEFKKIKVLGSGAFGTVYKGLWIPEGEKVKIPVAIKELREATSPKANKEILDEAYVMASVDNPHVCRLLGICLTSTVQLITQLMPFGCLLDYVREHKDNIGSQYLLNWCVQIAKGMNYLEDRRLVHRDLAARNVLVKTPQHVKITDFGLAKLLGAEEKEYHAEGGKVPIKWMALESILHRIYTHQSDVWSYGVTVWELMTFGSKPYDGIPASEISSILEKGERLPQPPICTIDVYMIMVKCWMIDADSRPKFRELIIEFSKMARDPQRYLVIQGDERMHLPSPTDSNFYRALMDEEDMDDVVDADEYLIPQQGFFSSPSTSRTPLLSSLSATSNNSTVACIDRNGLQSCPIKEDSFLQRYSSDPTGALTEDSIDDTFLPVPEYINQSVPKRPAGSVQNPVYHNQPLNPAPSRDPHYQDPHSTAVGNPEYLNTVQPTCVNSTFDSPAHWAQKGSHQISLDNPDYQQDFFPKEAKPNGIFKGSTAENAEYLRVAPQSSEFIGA

IC50	SMILES
34.8 µM	COc1c(C(C)C)cc(/C=C2/C(=O)Nc3ccc(C)cc32)cc1C(C)C [Example 19, 3-(3,5-Diisopropyl-4-methoxybenzylidene)-5-methyl-1,3-dihydroindol-2-one]
78.1 µM	COc1c(C(C)C)cc(/C=C2/C(=O)Nc3ccc(N)cc32)cc1C(C)C [Example 20, 5-Amino-3-(3,5-diisopropyl-4-methoxy-benzylidene)-1,3-dihydroindol-2-one]
18.5 µM	COc1c(C)cc(/C=C2/C(=O)Nc3ccc(Cl)cc32)cc1C [Example 21, 5-Chloro-3-(4-methoxy-3,5-dimethylbenzylidene)-1,3-dihydroindol-2-one]
> 100 µM	COc1c(C(C)C)cc(/C=C2/C(=O)Nc3cc(F)ccc32)cc1C(C)C [Example 22, 3-(3,5-Diisopropyl-4-methoxybenzylidene)-6-fluoro-1,3-dihydroindol-2-one]
37.7 µM	CC1(C)CCc2cc(/C=C3/C(=O)Nc4ccc(F)cc43)ccc2O1 [Example 23, 3-(2,2-Dimethylchroman-6-ylmethylene)-5-fluoro-1,3-dihydroindol-2-one]
38.5 µM	CC(C)c1cc(/C=C2/C(=O)Nc3ccc(Cl)cc32)cc(C(C)C)c1OCCN1CCOCC1 [Example 24, 5-chloro-3-[3,5-diisopropyl-4-(2-morpholin-4-ylethoxy)-benzylidene]-1,3-dihydroindol-2-one]
94 µM	COc1ccc(/C=C2/C(=O)Nc3ccc(CCN4CCOCC4)cc32)cc1-c1ccsc1 [Example 26, 3-(4-Methoxy-3-thiophen-3-ylbenzylidene)-5-(2-morpholin-4-yl-ethyl)-1,3-dihydroindol-2-one]
30.6 µM	COc1cc(C)c(C=C2C(=O)Nc3cc(NC(C)=O)ccc32)cc1C(C)C [Example 27, N-[3-(5-Isopropyl-4-methoxy-2-methyl-benzylidene)-2-oxo-2,3-dihydro-1H-indol-6-yl]-acetamide]
> 100 µM	CCc1ccc2c(c1)/C(=C\c1cc(C(C)C)c(OC)c(C(C)C)c1)C(=O)N2 [Example 28, 3-(3,5-Diisopropyl-4-methoxbenzylidene)-5-ethyl-1,3-dihydroindol-2-one]
> 100 µM	COc1ccc(C=C2C(=O)Nc3ccccc32)cc1-c1cccc(NC(C)=O)c1 [Example 29, N-[2′-Methoxy-5′-(2-oxo-1,2-dihydroindol-3-ylidenemethyl)-biphenyl-3-yl]-acetamide]
63.4 µM	COc1cc(C)c(/C=C2/C(=O)Nc3ccc(F)cc32)cc1C(C)C [Example 30, 5-Fluoro-3-(5-isopropyl-4-methoxy-2-methyl-benzylidene)-1,3-dihydroindol-2-one]
29.6 µM	COc1ccc(/C=C2/C(=O)Nc3cc(NC(C)=O)ccc32)cc1-c1cccs1 [Example 31, N-[3-(4-Methoxy-3-thiophen-2-ylbenzylidene)-2-oxo-2,3-dihydro-1H-indol-6-yl]-acetamide]
> 100 µM	COc1c(C(C)C)cc(/C=C2/C(=O)Nc3cc(N)ccc32)cc1C(C)C [Example 32, 6-Amino-3-(3,5-diisoprotyl-4-methoxy-benzylidene)-1,3-dihydroindol-2-one]
53.2 µM	CC(=O)Nc1ccc2c(c1)NC(=O)/C2=C\c1ccc2c(c1)CCC(C)(C)O2 [Example 33, N-[3-(2,2-Dimethylchroman-6-ylmethylene)-2-oxo-2,3-dihydro-1H-indol-6-yl]-acetamide]
> 100 µM	COc1ccc(/C=C2/C(=O)Nc3ccccc32)cc1-c1ccsc1 [Example 35, 3-(4-Methoxy-3-thiophen-3-ylbenzylidene)-1,3-dihydroindol-2-one]
66.8 µM	COc1cc(C)c(/C=C2/C(=O)Nc3ccc(Br)cc32)cc1C(C)C [Example 36, 5-Bromo-3-(5-isopropyl-4-methoxy-2-methyl-benzylidene)-1,3-dihydroindol-2-one]

IC50	SMILES
> 100 µM	COc1ccc(/C=C2/C(=O)Nc3ccc(F)cc32)cc1-c1ccccc1 [Example 37, 5-Fluoro-3-(6-methoxybiphenyl-3-ylmethylene)-1,3-dihydroindol-2-one]
> 100 µM	COc1ccc(/C=C2\C(=O)Nc3cccc(C)c32)cc1C(C)C [Example 38, 3-(3-Isopropyl-4-methoxybenzylidene)-4-methyl-1,3-dihydroindol-2-one]
> 100 µM	COc1cc(/C=C2/C(=O)Nc3ccccc32)c(-c2cccs2)cc1OC [Example 39, 3-(4,5-Dimethoxy-2-thiophen-2-ylbenzylidene)-1,3-dihydroindol-2-one]
79 µM	CC(=O)Nc1ccc2c(c1)NC(=O)/C2=C/c1ccc(OCCN2CCOCC2)c(-c2cccs2)c1 [Example 40, N-{3-[4-(2-Morpholin-4-ylethoxy)-3-thiophen-2-ylbenzylidene]-2-oxo-2,3-dihydro-1H-indol-6-yl}-acetamide]
> 100 µM	Cc1cccc2c1/C(=C/c1ccc3c(c1)CCC(C)(C)O3)C(=O)N2 [Example 41, 3-(2,2-Dimethylchroman-6-ylmethylene)-4-methyl-1,3-dihydroindol-2-one]
> 100 µM	O=C1Nc2ccc(F)cc2/C1=C\c1ccc2c(c1)CCO2 [Example 42, 3-(2,3-Dihydrobenzofuran-5-ylmethylene)-5-fluoro-1,3-dihydroindol-2-one]
> 100 µM	COc1ccc(/C=C2/C(=O)Nc3ccc(F)cc32)cc1C1CCCCC1 [Example 43, 3-(3-Cyclohexyl-4-methoxybenzylidene)-5-fluoro-1,3-dihydroindol-2-one]
76.9 µM	COc1ccc(/C=C2/C(=O)Nc3ccc(F)cc32)cc1C(C)C [Example 44, 5-Fluoro-3-(3-isopropyl-4-methoxybenzylidene)-1,3-dihydroindol-2-one]
> 100 µM	COc1cc(C)c(/C=C2/C(=O)Nc3ncccc32)cc1C(C)C [Example 45, 3-(5-Isopropyl-4-methoxy-2-methylbenzylidene)-1,3-dihydro-pyrrolo[2,3-b]pyridin-2-one]
> 100 µM	CCOc1cccc(-c2cc(C=C3C(=O)Nc4ccccc43)ccc2OC)c1 [Example 46, 3-(3′-Ethoxy-6-methoxybiphenyl-3-ylmethylene)-1,3-dihydroindol-2-one]
> 100 µM	COc1ccc(/C=C2/C(=O)Nc3ncccc32)cc1C1CCCC1 [Example 47, 3-(3-Cyclopentyl-4-methoxybenzylidene)-1,3-dihydropyrrolo[2,3-b]pyridin-2-one]
> 100 µM	COc1ccc(/C=C2\C(=O)Nc3cccc(C)c32)cc1C1CCCC1 [Example 48, 3-(3-Cyclopentyl-4-methoxybenzylidene)-4-methyl-1,3-dihydroindol-2-one]
> 100 µM	COc1cc(C=C2C(=O)Nc3ccccc32)c(-c2ccccc2OC)cc1OC [Example 49, 3-(4,5,2′-Trimethoxybiphenyl-2-ylmethylene)-1,3-dihydroindol-2-one]
> 100 µM	CC(=O)Nc1ccc2c(c1)NC(=O)/C2=C/c1ccc(OCCN2CCOCC2)c(-c2ccsc2)c1 [Example 50, N-{3-[4-(2-Morpholin-4-ylethoxy)-3-thiophen-3-ylbenzylidene]-2-oxo-2,3-dihydro-1H-indol-6-yl}-acetamide]
> 100 µM	COc1ccc(/C=C2/C(=O)Nc3ccc(Cl)cc32)cc1C1CCCCC1 [Example 51, 5-Chloro-3-(3-cyclohexyl-4-methoxybenzylidene)-1,3-dihydroindol-2-one]
